From US20070276017A1, “Thiadiazoline Derivative” (priority 2003, published 2007)

What was measured:
[1] = biological target: T1, human Eg5 motor domain (Homo sapiens, UniProt P52732); experiment: Eg5 enzyme inhibition test (2): ATPase activity of recombinant human Eg5 motor domain; type: biochemical; details: tubulin/paclitaxel, 30° C. for 30 minutes, concentration-dependent inhibition
T1 construct: A plasmid expressing the motor domain of human Eg5 was constructed; made in house; host or cells: Escherichia coli BL21 (DE3)
T1 sequence (P52732 18-359 limits assumed): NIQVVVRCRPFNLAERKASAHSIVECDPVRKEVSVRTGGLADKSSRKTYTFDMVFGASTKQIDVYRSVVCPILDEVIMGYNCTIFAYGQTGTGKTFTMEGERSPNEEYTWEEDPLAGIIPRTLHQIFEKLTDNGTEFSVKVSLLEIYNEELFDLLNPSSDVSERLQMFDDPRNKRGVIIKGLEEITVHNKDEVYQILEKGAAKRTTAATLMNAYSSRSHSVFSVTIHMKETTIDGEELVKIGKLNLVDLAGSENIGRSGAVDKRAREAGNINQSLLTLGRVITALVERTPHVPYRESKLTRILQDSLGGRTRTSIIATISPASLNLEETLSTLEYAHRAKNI
Protocol: A recombinant human Eg5 motor domain protein was prepared by referring to the literature [Biochemistry, Vol. 35, p. 2365 (1996)]. A plasmid expressing the motor domain of human Eg5 was constructed, and transformed into Escherichia coli BL21 (DE3). The transformant was cultured at 25° C., and when the OD600 reached 0.74, isopropyl-β-D-thiogalactoside was added at a final concentration of 0.5 mmol/L. The transformant was further cultured for 4 hours, and then the culture medium was centrifuged to collect the cells. The cells were suspended in a buffer and ultrasonicated, and then the sonicated solution was centrifuged to recover the supernatant. The supernatant was purified by cation exchange column chromatography to obtain a partially purified sample. Furthermore, the partially purified sample was purified by gel filtration column chromatography to obtain a finally purified sample.
Measurement of the ATPase activity of Eg5 was carried out by referring to the literatures [EMBO Journal, Vol. 13, p. 751 (1994); Proc. Natl. Acad. Sci. USA, Vol. 89, p. 4884 (1992)]. The following two kinds of solutions were prepared: Solution A consisting of 25 mmol/L piperazine N,N′-bis(ethanesulfonate) (PIPES)/KOH (pH 6.8), 1 mmol/L ethylene glycol-bis(2-aminoethyl ether)tetraacetic acid (EGTA), 2 mmol/L MgCl2, 1 mmol/L dithiothreitol (DTT), 5 μmol/L paclitaxel, 167 μg/mL bovine serum albumin (BSA), 41.7 μg/mL tubulin (Cytoskeleton, Catalog No. TL238), 333 μmol/L MESG substrate (2-amino-6-mercapto-7-methylpurine riboside) (Molecular Probes, Catalog Number E-6646), 1.67 U/mL purine nucleoside phosphorylase (Molecular Probe, Catalog No. E-6646) and 1.33 μg/mL of the human Eg5 motor domain purified sample, and Solution B consisting of 25 mmol/L piperazine N,N′-bis(ethanesulfonate) (PIPES)/KOH (pH 6.8), 1 mmol/L ethylene glycol-bis(2-aminoethyl ether)tetraacetic acid (EGTA), 2 mmol/L MgCl2, 1 mmol/L dithiothreitol (DTT), 5 μmol/L paclitaxel and 2.5 mmol/L ATP. Solution A was dispensed into each well of a 96-well plate as 45 μL portions. Solution B was used to serially dilute a test compound. The diluted test compound solutions in a volume of 30 μL were mixed with Solution A added beforehand in each well of the 96-well plate to start the enzymatic reaction. The enzymatic reaction was performed at 30° C. for 30 minutes. Absorbance at 360 nm, which serves as an index of the ATPase activity, was measured using a plate reader (Molecular Device, SpectraMax 340PC^384). The absorbance observed in the presence of Eg5 and absence of the test compound was defined 100%, and the absorbance observed in the absence of both Eg5 and the test compound was defined 0%. The relative activity was calculated to calculate IC50 value.

[2] = tested on: HCT 116 human colon carcinoma cells; experiment: Antiproliferative activity against HCT 116 human colon carcinoma cells (XTT, 72 hours); type: cell-based; details: read-out: GI50, concentration of compound which induces 50% inhibition of cell proliferation, HCT 116 cells, 72 hours incubation
Protocol: HCT 116 cells (ATCC No.: CCL-247) were placed on a 96-well microtiter plate (Nunc, 167008) at a density of 1×10^3 cells/well. The plate was incubated in a 5% CO2 incubator at 37° C. for 24 hours, and then to the plate was added test compounds diluted stepwise to […] in total, and the plate was further incubated in a 5% CO2 incubator at 37° C. for 72 hours. To the culture medium, the XTT (sodium 3′-[1-(phenylaminocarbonyl)-3,4-tetrazolium]-bis(4-methoxy-6-nitro)benzenesulfonic acid hydrate) labeling mixture (Roche Diagnostics, 1465015) was dispensed in […] portions, then the plate was incubated in a 5% CO2 incubator at 37° C. for 1 hour, and the absorbance was measured at 490 nm and 655 nm with a microplate spectrophotometer (Bio-Rad, Model 550).
GI50 calculation method: The value (difference in absorbance) was calculated by subtracting the absorbance at 655 nm from the absorbance at 490 nm of each well.

Compound | IC50 [1] [µM] | GI50 [2] [µM]
CC(=O)N1N=C(NC(=O)C(C)(C)C)SC1(CCCN)c1ccccc1 (stereo not drawn) [Compound 88] | ≤ 5 | –
CN(C)CCS(=O)(=O)NCCCC1(c2ccccc2)SC(N2CCCCC2=O)=NN1C(=O)C(C)(C)C (stereo not drawn) [Compound 85] | ≤ 5 | < 10
CC(=O)N1N=C(N2CCCCC2=O)SC1(CCNC(=O)CCCN(C)C)c1ccccc1 (stereo not drawn) [Compound 144] | ≤ 5 | < 10
CCOCCNCCC1(c2ccccc2)SC(NC(=O)C(C)(C)C)=NN1C(=O)C(C)(C)C (stereo not drawn) [Compound 3] | ≤ 5 | –
CC(C)(C)C(=O)NC1=NN(C(=O)C(C)(C)C)C(CCNC(=O)C2CCCN2)(c2ccccc2)S1 (stereo not drawn) [Compound 59] | ≤ 5 | < 10
COC(=O)N1CCN(CCCC2(c3ccccc3)SC(NC(=O)C(C)(C)C)=NN2C(=O)C(C)(C)C)CC1 (stereo not drawn) [Compound 122] | ≤ 5 | < 10

Now from value to compound:

IC50 [1] [µM] | GI50 [2] [µM] | Compound
≤ 5 | 0.065 | CC(C)(C)C(=O)NC1=NN(C(=O)C(C)(C)C)C(CCNCCCN2CCCC2=O)(c2ccccc2)S1 (stereo not drawn) [Compound 9]
≤ 5 | – | CC(=O)N1N=C(N2CCCC2=O)SC1(CCCN)c1ccccc1 (stereo not drawn) [Compound 90]
≤ 5 | – | CC(C)(C)C(=O)NC1=NN(C(=O)C(C)(C)C)C(CCCNC(=O)CN)(c2ccccc2)S1 (stereo not drawn) [Compound 73]
≤ 5 | – | CC(C)(C)C(=O)NC1=NN(C(=O)C(C)(C)C)C(CCCNCCCO)(c2ccccc2)S1 (stereo not drawn) [Compound 29]
≤ 5 | – | CNCCCC1(c2ccccc2)SC(NC(=O)C(C)(C)C)=NN1C(=O)C(C)(C)C (stereo not drawn) [Compound 23]
≤ 5 | < 10 | CC(C)(C)C(=O)NC1=NN(C(=O)C(C)(C)C)C(CCCNC(CO)CO)(c2ccccc2)S1 (stereo not drawn) [Compound 76]
≤ 5 | – | CC(C)(C)C(=O)N1N=C(N2CCCCC2=O)SC1(CCCN)c1ccccc1 (stereo not drawn) [Compound 83]
≤ 5 | < 10 | CC(C)(C)C(=O)NC1=NN(C(=O)C(C)(C)C)C(COC(=O)NCCN2CCCC2)(c2ccccc2)S1 (stereo not drawn) [Compound 181]
